This is an account of results in article PMC9962029, “Inhibition of Hepatitis B Virus (HBV) by Tachyplesin, a Marine Antimicrobial Cell-Penetrating Peptide” (Pharmaceutics, 2023).

Residues, ends and D or L forms follow the SMILES beside them.

One data set relates to Huh7 cells. Put plainly: MTT cytotoxicity assay in Huh7 cells. The class given is cell-based, human. The conditions noted are these: 48 h, up to 12 µM Tpl, three independent experiments. On the procedure: (§1) MTT assay was used to identify the non-cytotoxic concentrations of Tpl. Cell viability was measured using MTT (3-(4,5_dimethylthaizol-2-yl)-2,5-diphenyltetrazolium bromide) assay. Approximately 10,000 cells were seeded per well in 96-well plates and kept overnight at 37 °C and 5% CO2 to achieve more than 80% confluency. Thereafter, cells were treated with various concentrations of Tpl for 48 h. After 48 h, media was removed, and cells were washed with PBS. MTT reagent was added at a final concentration of 1 mg/mL and kept for 4 h at 37 °C and 5% CO2. Thereafter, 100 µL of DMSO was added to dissolve the formazan crystals formed, and absorbance was determined at a wavelength of 570 nm with a background wavelength of 630 nm (Multiskan GO microplate spectrophotometer, Thermo Scientific, Waltham, MA, USA).
For orientation: Formazan colour is commonly taken as a measure of viable cells.

The test system of the next data set is HepG2 cells. In words: MTT cytotoxicity assay in HepG2 cells. It counts as cell-based, human. The conditions noted are these: 48 h, up to 12 µM Tpl, three independent experiments. The procedure: as §1

In the case of `CC[C@H](C)[C@@H]1NC(=O)CNC(=O)[C@H](CCCNC(=N)N)NC(=O)[C@H](Cc2ccc(O)cc2)NC(=O)[C@@H]2CSSC[C@H](NC1=O)C(=O)N[C@@H](Cc1ccc(O)cc1)C(=O)N[C@@H](CCCNC(=N)N)C(=O)N[C@@H](CCCNC(=N)N)C(=O)N[C@H](C(=O)N[C@@H](CCCNC(=N)N)C(=O)NCC(=O)N[C@@H](CCCCN)C(N)=O)CSSC[C@H](NC(=O)[C@H](Cc1c[nH]c3ccccc13)NC(=O)[C@@H](N)CCCCN)C(=O)N[C@@H](Cc1ccccc1)C(=O)N[C@@H](CCCNC(=N)N)C(=O)N[C@@H](C(C)C)C(=O)N2` [Tpl] (HELM PEPTIDE1{K.W.C.F.R.V.C.Y.R.G.I.C.Y.R.R.C.R.G.K.[am]}$PEPTIDE1,PEPTIDE1,3:R3-16:R3|PEPTIDE1,PEPTIDE1,7:R3-12:R3$$$V2.0), the Cell viability entry with Huh7 cells and with HepG2 cells was “more than 85%” each time.
